We go through two sequences from patent US5962636A, “Peptides capable of modulating inflammatory heart disease” (priority 1998, dated 1999).

The series deals with Balb/c mice. Kind of series: Oligodeoxynucleotides as adjuvants: immunization with M7A-alpha peptide plus oligo; presence and severity of inflammatory heart disease. Format: in vivo. As to conditions: for Prevalence / Severity: day 21; for immunostimulatory / adjuvant activity: result in words, with M7A-alpha peptide, in the absence of Freund's complete adjuvant; for Severity: score ± SD, scale as in Example 1, adjuvant given with M7A-alpha peptide.

[1] abbreviates: adjuvant given with about 50 micrograms M7A-alpha peptide, days 0 and 7, oligos about 10 nmol with Freund's incomplete adjuvant.

With “GTACTGACGTTTACTCTTGG (chemistry not given here) [CpG, oligonucleotide with CpG motif derived from DNA encoding a 60 kDa cysteine rich outer membrane protein from Chlamydia trachomatis]”, the “immunostimulatory / adjuvant activity” value is “potent immunostimulator” and the Severity is on record as 1.2 ± 0.4. Also, the Prevalence (about 10 nmol oligo without peptide (Peptide: None)) is listed as 0/5. The Prevalence under setting [1] is listed as 5/5.

Regarding “GTACTGAGCTTTACTCTTGG (chemistry not given here) [non-CpG, counterpart of the CpG oligo not containing the CpG motif, reference compound]”, the “immunostimulatory / adjuvant activity” value is reported as “hardly effective as an adjuvant” and the Severity stood at 1.0 ± 0.0. In addition, the Prevalence under setting [1] is recorded as 1/5.
